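Each compound was tested at five concentrations against cells in 96-well plates for 48 hours. Abbreviation: GI50, concentration required for 50% inhibition of growth.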 The source made the active and inactive calls. No stated cut-off is given here; in the data, active = GI50 up to about 1.1 µM and inactive = higher.

Holding throughout (assay): inhibition of tumour cell growth, NCI panel, 48 h
The subject of assay [1] is HOP-62.
Assay [2] deals with 786-0.
The test system of assay [3] is SW-620.
The test system of assay [4] is SF-268.
Assay [5] has as its system NCI-H23.
Assay [6] concerns SF-539.
In assay [7] the test system is IGROV-1.
In assay [8] the test system is SK-MEL-28.
Assay [9] deals with U-251.
In assay [10] the test system is KM12.
The test system of assay [11] is NCI-H226.
For assay [12], the system named is NCI/ADR-RES.
For assay [13], the system named is SR.
Assay [14] has as its system OVCAR-5.
The test system of assay [15] is DU-145.
Assay [16] relates to OVCAR-3.
The test system of assay [17] is CCRF-CEM.
Assay [18] deals with MDA-N.
For assay [19], the system named is EKVX.
Assay [20] has as its system RXF 393.

Take `C[C@H]1CCC/C=C/[C@@H]2C[C@H](OC(=O)CN(C)C)C[C@H]2[C@H](O)/C=C/C(=O)O1`: the GI50 in assay [1] was 0.21 µM (active); in [2] it was 0.0462 µM (active); in assay [3], 0.156 µM (active); in assay [4], 0.2 µM (active); in assay [5], 0.129 µM (active); in [6], 0.148 µM (active). The GI50 was 0.57 µM (active) in [7]; 0.138 µM (active) in assay [8]; 0.254 µM (active) in assay [9]; 0.0522 µM (active) in assay [10]; 0.0288 µM (active) in [11]; 0.0139 µM (active) in assay [12]. Besides, the GI50 was 0.153 µM (active) in assay [13]; 0.102 µM (active) in [14]; 0.401 µM (active) in [15]; 0.169 µM (active) in [16]; 0.284 µM (active) in assay [17]; 0.135 µM (active) in assay [18]. The results for the GI50 in assay [19] and in assay [20] were 0.188 µM (active) and 0.0383 µM (active), respectively.

On to `O=C(c1ccco1)N(C(=S)OCc1ccccn1)c1ccccc1`, for which the GI50 is 16 µM (inactive) in assay [1]; > 100 µM (inactive) in assay [2]; > 100 µM (inactive) in assay [3]; > 100 µM (inactive) in [4]; > 100 µM (inactive) in assay [5]; 36 µM (inactive) in assay [6]. Moreover, the GI50 in assay [7] was 50.1 µM (inactive); in assay [8] it was > 100 µM (inactive); in assay [9], > 100 µM (inactive); in assay [10], > 100 µM (inactive); in [11] it was 29.6 µM (inactive); in assay [12], 62.5 µM (inactive). Besides, the GI50 in [13] was 1.25 µM (inactive); in assay [14], > 100 µM (inactive); in [15], > 100 µM (inactive); in assay [16] it was > 100 µM (inactive); in [17] it was 69.8 µM (inactive); in assay [18], > 100 µM (inactive). Moreover, the values for the GI50 in assay [19] and in assay [20] were 13.3 µM (inactive) and 30.9 µM (inactive), respectively.

As to `CC1(C)CC(=O)C2=C(C1)C(c1ccccc1Cl)C1C(=O)CC(C)(C)CC1(O)O2` (stereo not given), the GI50 is > 100 µM (inactive) in assay [1]; > 100 µM (inactive) in [2]; 43.7 µM (inactive) in assay [3]; > 100 µM (inactive) in [4]; > 100 µM (inactive) in assay [5]; 69 µM (inactive) in [6]. In addition, the GI50 was > 100 µM (inactive) in assay [7]; > 100 µM (inactive) in [8]; > 100 µM (inactive) in [9]; > 100 µM (inactive) in assay [10]; > 100 µM (inactive) in [11]; > 89.1 µM (inactive) in assay [12]. Also, the GI50 in assay [13] was 28.1 µM (inactive); in [14], > 100 µM (inactive); in [15], > 100 µM (inactive); in assay [16], > 100 µM (inactive); in assay [17], 26.8 µM (inactive); in assay [18] it was 19.6 µM (inactive). The GI50 in [19] and in assay [20] was > 100 µM (inactive) throughout.

`BrC1=C(Br)C2(SCCS2)[C@H]2C[C@@H]1c1ccccc12`: the GI50 in [1] was > 100 µM (inactive); in [2], 58.3 µM (inactive); in [3], 35.3 µM (inactive); in assay [4], 63.7 µM (inactive); in assay [5] it was 33.9 µM (inactive); in assay [6], 41.3 µM (inactive). The GI50 in assay [7] is 55 µM (inactive); in assay [8], 97.9 µM (inactive); in assay [9] it was 37.8 µM (inactive); in [10], 11.6 µM (inactive); in [11], 64.1 µM (inactive); in assay [12], 61.5 µM (inactive). Besides, the GI50 is 9.4 µM (inactive) in assay [13]; > 100 µM (inactive) in assay [14]; 47.3 µM (inactive) in assay [15]; > 100 µM (inactive) in assay [16]; 14.6 µM (inactive) in assay [17]; 4.07 µM (inactive) in [18]. Further, the GI50 in [19] is 36.9 µM (inactive); in assay [20] it was > 31.2 µM (inactive).

For `Clc1ccc(/N=C/C=C/Nc2ccc(Cl)cn2)nc1`, the GI50 in [1] was 16.9 µM (inactive); in assay [2], 5.65 µM (inactive); in assay [3], 4.9 µM (inactive); in assay [4] it was 16.4 µM (inactive); in assay [5], 16.9 µM (inactive); in assay [6], 17.3 µM (inactive). Also, the GI50 in [7] was 15 µM (inactive); in assay [8], 18.6 µM (inactive); in assay [9] it was 8.26 µM (inactive); in [10], 8.53 µM (inactive); in [11] it was 16.1 µM (inactive); in assay [12], 15.2 µM (inactive). Further, the GI50 was 2.78 µM (inactive) in assay [13]; 16.3 µM (inactive) in [14]; 17.5 µM (inactive) in assay [15]; 13.5 µM (inactive) in assay [16]; 3.22 µM (inactive) in assay [17]; 15.1 µM (inactive) in [18]. Also, the GI50 in [19] was 0.714 µM (active); in assay [20] it was 18.4 µM (inactive).

With `O=[N+]([O-])c1ccc(CN(CCCl)OCCCl)cc1`, the GI50 in [1] was > 100 µM (inactive); in assay [2], > 100 µM (inactive); in [3], 91.2 µM (inactive); in assay [4], > 100 µM (inactive); in assay [5], 76.7 µM (inactive); in assay [6] it was > 100 µM (inactive). The GI50 is 75.9 µM (inactive) in assay [7]; > 100 µM (inactive) in assay [8]; > 100 µM (inactive) in [9]; > 100 µM (inactive) in assay [10]; > 100 µM (inactive) in assay [11]; > 100 µM (inactive) in [12]. Also, the GI50 in assay [13] was 65 µM (inactive); in assay [14], > 100 µM (inactive); in [15], > 100 µM (inactive); in assay [16], > 100 µM (inactive); in [17], 35.5 µM (inactive); in [18], > 100 µM (inactive). In addition, the GI50 in assay [19] was 92.7 µM (inactive); in [20], > 100 µM (inactive).

Consider `COc1ccc(C(SC2C(O)C(CO)OC2n2ccc(N)nc2=O)(c2ccccc2)c2ccc(OC)cc2)cc1` (stereo not given), for which the GI50 is 17.8 µM (inactive) in assay [1]; 16.8 µM (inactive) in [2]; 23.6 µM (inactive) in assay [3]; 17.7 µM (inactive) in assay [4]; 22.2 µM (inactive) in assay [5]; 18.7 µM (inactive) in assay [6]. For the same compound, the GI50 was 21.9 µM (inactive) in assay [7]; 27.4 µM (inactive) in assay [8]; 15.6 µM (inactive) in assay [9]; 19.7 µM (inactive) in [10]; 14.2 µM (inactive) in assay [11]; 21 µM (inactive) in assay [12]. The GI50 is 12.4 µM (inactive) in [13]; 20.1 µM (inactive) in [14]; 18.5 µM (inactive) in [15]; 18.7 µM (inactive) in assay [16]; 20.2 µM (inactive) in [17]; 10.1 µM (inactive) in assay [18]. Besides, the GI50 is 18.1 µM (inactive) in [19] and 17.5 µM (inactive) in assay [20].

In the case of `S=C(N/N=C(\C(=N/NC(=S)N1CCCCC1)c1ccccn1)c1ccccn1)N1CCCCC1`, the GI50 is 21.3 µM (inactive) in [1]; 36.5 µM (inactive) in [2]; 9.12 µM (inactive) in [3]; 5.55 µM (inactive) in assay [4]; 44.8 µM (inactive) in assay [5]; 35.4 µM (inactive) in [6]. Moreover, the GI50 is 48.8 µM (inactive) in [7]; 21.1 µM (inactive) in assay [8]; 32.7 µM (inactive) in [9]; 51.8 µM (inactive) in assay [10]; 26.3 µM (inactive) in assay [11]; 7.06 µM (inactive) in assay [12]. Also, the GI50 in assay [13] is > 100 µM (inactive); in [14], 51.2 µM (inactive); in [15], 14.9 µM (inactive); in [16], 3.63 µM (inactive); in assay [17] it was 3.91 µM (inactive); in [18], 57.8 µM (inactive). The GI50 in assay [19] is 80 µM (inactive); in assay [20], 18 µM (inactive).

In the case of `O=C(O)c1ccccc1NC(c1ccccc1)c1ccc2cccnc2c1O` (stereo not given), the GI50 in assay [1] is 7.67 µM (inactive); in assay [2], 4.39 µM (inactive); in assay [3], 5.4 µM (inactive); in assay [4], 5.19 µM (inactive); in assay [5] it was 12.6 µM (inactive); in [6], 5.14 µM (inactive). Besides, the GI50 in [7] is 20.4 µM (inactive); in assay [8], 6.41 µM (inactive); in assay [9], 4.08 µM (inactive); in assay [10] it was 5.31 µM (inactive); in assay [11] it was 4.27 µM (inactive); in [12] it was 3.77 µM (inactive). In addition, the GI50 in [13] was 2.06 µM (inactive); in assay [14], 8.97 µM (inactive); in assay [15], 18.7 µM (inactive); in [16], 3.63 µM (inactive); in assay [17], 1.93 µM (inactive); in assay [18], 13.4 µM (inactive). For the same compound, the figures for the GI50 in assay [19] and in [20] were 6.18 µM (inactive) and 10 µM (inactive), respectively.

Regarding `O=C1NC2(CCN(CCc3ccccc3)CC2)Oc2ccccc21`, the GI50 is > 100 µM (inactive) in [1]; > 100 µM (inactive) in assay [2]; > 100 µM (inactive) in assay [3]; > 100 µM (inactive) in assay [4]; 64 µM (inactive) in assay [5]; > 100 µM (inactive) in assay [6]. Moreover, the GI50 in assay [7] was > 100 µM (inactive); in [8], 73.6 µM (inactive); in assay [9] it was 61.9 µM (inactive); in assay [10], 54.7 µM (inactive); in [11], 61.1 µM (inactive); in [12], 38.2 µM (inactive). Moreover, the GI50 in assay [13] was 52.7 µM (inactive); in assay [14], 44.2 µM (inactive); in assay [15] it was > 100 µM (inactive); in [16], 77.6 µM (inactive); in assay [17] it was 49.3 µM (inactive); in [18], 41.6 µM (inactive). Also, the GI50 in [19] is 69.2 µM (inactive); in assay [20], 22.4 µM (inactive).

The values above are taken from ChEMBL document CHEMBL1201862, “PubChem BioAssay data set” (2004).
